The values below are quoted from earlier work in patent US9498462B2, “Doxepin trans isomers and isomeric mixtures and methods of using the same to treat sleep disorders” (Pernix Sleep Inc., priority 2006, dated 2016).

One series concerns the target melatonin MT1 receptor (Homo sapiens, UniProt P48039).
The target in another series is T1, melatonin MT2 receptor (Homo sapiens, UniProt P49286).
T1 sequence (P49286 1-362): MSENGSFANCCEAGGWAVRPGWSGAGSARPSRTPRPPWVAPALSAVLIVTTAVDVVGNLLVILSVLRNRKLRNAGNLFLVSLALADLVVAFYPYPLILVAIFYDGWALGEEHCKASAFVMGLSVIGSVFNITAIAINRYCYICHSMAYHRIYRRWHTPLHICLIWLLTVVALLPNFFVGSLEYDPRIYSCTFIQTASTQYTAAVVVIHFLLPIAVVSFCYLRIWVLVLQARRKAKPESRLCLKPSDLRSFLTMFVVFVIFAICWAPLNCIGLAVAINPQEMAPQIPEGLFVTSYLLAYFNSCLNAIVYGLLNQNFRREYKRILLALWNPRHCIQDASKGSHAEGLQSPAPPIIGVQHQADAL

melatonin MT1 receptor, sequence (P48039 whole entry): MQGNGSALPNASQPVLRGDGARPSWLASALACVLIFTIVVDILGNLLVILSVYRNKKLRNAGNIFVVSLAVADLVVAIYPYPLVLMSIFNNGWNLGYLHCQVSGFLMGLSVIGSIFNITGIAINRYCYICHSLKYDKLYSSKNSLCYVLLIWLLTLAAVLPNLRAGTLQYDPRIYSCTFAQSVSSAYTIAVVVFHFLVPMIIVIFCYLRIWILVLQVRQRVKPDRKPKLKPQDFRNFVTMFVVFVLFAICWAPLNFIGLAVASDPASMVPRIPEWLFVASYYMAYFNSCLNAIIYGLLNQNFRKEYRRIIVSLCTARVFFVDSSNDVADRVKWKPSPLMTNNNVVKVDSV

As to `CCC(=O)NCC[C@@H]1CCc2ccc3c(c21)CCO3` [Ramelteon, (S)—N-[2-(1,6,7,8-tetrahydro-2H-indeno-[5,4-b]furan-8-yl)ethyl]propionamide], at melatonin MT1 receptor, the “affinity for melatonin MT1 receptor” value was “high affinity”. On melatonin MT2 receptor, the “affinity for melatonin MT2 receptor” value was “high affinity”.
